Patent US8828695B2, “Method for producing butanol using two-phase extractive fermentation” (Butamax Advanced Biofuels LLC, priority 2008, dated 2014)

Tests used:
[1] = tested on: Saccharomyces cerevisiae BY4741; assay: Biocompatibility of solvents, shake flask studies (OD600 and glucose); type: cell-based; settings: for Biocompatibility of the solvent (growth and glucose utilization versus control without solvent): S. cerevisiae BY4741, 25 mL solvent per 100 mL; for Glucose / OD600: 75 mL seed culture + 25 mL solvent, 30° C.
Protocol: The biocompatibility of each solvent was determined using shake flask studies with Saccharomyces cerevisiae BY4741 obtained from ATCC. Seed shake flasks containing 700 mL of yeast extract/peptone/dextrose (YPD) medium were inoculated with 200 μL of S. cerevisiae BY4741 inoculum and incubated overnight at 30° C. with shaking at 250 rpm until the OD600 reached about 0.5. Samples were withdrawn from the culture for measurement of OD600 using a spectrophotometer and glucose concentration using HPLC.
The resulting seed culture was divided into eight 125 mL flasks as follows. Into one flask, which served as a control, 100 mL of the seed culture was added. Into the remaining seven flasks, 75 mL of the seed culture and 25 mL of the solvent to be tested was added.

[2] = tested on: Lactobacillus plantarum strain PN0512; assay: Growth of Lactobacillus plantarum in the presence of isobutanol and oleyl alcohol (shake flask); type: cell-based
Protocol: The glucose consumption rate and the growth rate of Lactobacillus plantarum strain PN0512 were measured in shake flask cultures containing a high concentration of isobutanol in the presence of oleyl alcohol (Example 4) and the absence of oleyl alcohol (Example 5, Comparative).
Three seed shake flasks containing 50 mL of de Man-Rogosa-Sharpe (MRS) medium were inoculated with 200, 500, and 1000 μL, respectively, of Lactobacillus plantarum strain PN0512 inoculum (ATCC: PTA-7727, biological deposit made Jul. 12, 2006 for U.S. patent application Ser. No. 11/761,497). The flasks were incubated overnight at 30° C. with shaking at 250 rpm until the OD600 was between 2 and 5. A 1-L flask containing 600 mL of MRS medium was inoculated from one of the above seed flasks having an OD600=3 to an initial OD600=0.1 and cultivated at 30° C. with shaking at 180 rpm. After 4 to 5 hours of cultivation, the OD600 was between 0.5 and 1.0. Samples were withdrawn from each culture and the OD600 and glucose concentration were measured as described above.
To a 125 mL flask was added 100 mL of the culture from the above mentioned 1-L flask (Example 3, Comparative). To another 125 mL flask was added 75 mL of the culture and 25 mL of oleyl alcohol (i.e., 25 vol %) (Example 2). The flasks were incubated at 30° C. with shaking at 100 rpm. Samples were withdrawn for OD600 and glucose measurement. When the OD600 reached about 1.5, isobutanol was added to both flasks to a final concentration of 30 g/L of the aqueous phase. A third flask containing 75 mL of the culture and 25 vol % of oleyl alcohol, but no added isobutanol, served as a positive control. Samples were withdrawn from all flasks at various times for the determination of OD600 and glucose concentration.

[3] = tested on: Saccharomyces cerevisiae BY4741; assay: Growth of Saccharomyces cerevisiae in the presence of isobutanol and oleyl alcohol (shake flask); type: cell-based
Protocol: The glucose consumption rate and the growth rate of wild-type Saccharomyces cerevisiae BY4741 strain were measured in shake flask cultures containing a high concentration of isobutanol in the presence of oleyl alcohol (Example 2) and the absence of oleyl alcohol (Example 3, Comparative).
Three seed shake flasks containing 600 mL of YPD medium were inoculated with 100, 300, and 1000 μL of Saccharomyces cerevisiae BY4741 inoculum, respectively. The flasks were incubated overnight at 30° C. with shaking at 250 rpm until the OD600 reached about 0.1. Samples were withdrawn from each culture and the OD600 and glucose concentration were measured as described above.
To a 125 mL flask was added 100 mL of the culture which was derived from the 300 μL inoculum (Example 3, Comparative). To another 125 mL flask was added 75 mL of the culture and 25 mL of oleyl alcohol (i.e., 25 vol %) (Example 2). The flasks were incubated at 30° C. with shaking at 100 rpm. Samples were withdrawn for OD600 and glucose measurement. When the OD600 reached about 0.4, isobutanol was added to both flasks to a final concentration of 30 g/L of the aqueous phase. A third flask containing 75 mL of the culture and 25 vol % of oleyl alcohol, but no added isobutanol, served as a positive control. Samples were withdrawn from all flasks at various times for the determination of OD600 and glucose concentration.

[4] = Activity of the enzyme expressed from the sadB gene in cell-free extracts; type: biochemical, Achromobacter xylosoxidans; settings: cell-free extracts of Mach1/pTrc99a::sadB, isobutyraldehyde as the standard
Protocol: The sadB coding region was then cloned into the vector pTrc99a (Amann et al., Gene 69: 301-315, 1988). The pCR4Blunt::sadB was digested with EcoRI, releasing the sadB fragment, which was ligated with EcoRI-digested pTrc99a to generate pTrc99a::sadB. This plasmid was transformed into E. coli Mach 1 cells and the resulting transformant was named Mach1/pTrc99a::sadB. The activity of the enzyme expressed from the sadB gene in these cells was determined to be 3.5 mmol/min/mg protein in cell-free extracts when analyzed using isobutyraldehyde as the standard.

[5] = 25 vol % oleyl alcohol, isobutanol 30 g/L
[6] = Time 3 h after isobutanol addition
[7] = Time 4 h after isobutanol addition
[8] = Time 5 h after isobutanol addition
[9] = Time 14 h after isobutanol addition
[10] = isobutanol 30 g/L in the absence of oleyl alcohol

Molecule	Biocompatibility of the solvent (growth and glucose utilization versus control without solvent) [1]	Glucose ([1]; t = 0) [g/L]	OD600 ([1]; t = 0)	OD600 ([1]; t = 4)	Glucose ([1]; t = 2 h) [g/L]	OD600 ([1]; t = 2 h)	Glucose ([1]; t = 4 h) [g/L]	Glucose ([1]; t = 6 h) [g/L]	OD600 ([1]; t = 6 h)	Glucose ([1]; t = 24 h) [g/L]	OD600 ([1]; t = 24 h)	further results
CCCCCCCCCCO [Solvent 1-decanol, 1-decanol]	inhibited growth and glucose utilization	17.5	0.5	0.7	16.6	0.5	17.0	17.8	0.6	17.6	0.8	
CCCCCCCC/C=C\CCCCCCCCO [oleyl alcohol]	biocompatible	17.5	0.5	2.0	15.3	1.0	10.4	3.4	2.4	0.0	3.5	Effect of oleyl alcohol on isobutanol toxicity [2, 5]: mitigates the toxicity of isobutanol; Effect of oleyl alcohol on isobutanol toxicity [3, 5]: mitigates the toxicity of isobutanol
CCCCCCCC/C=C\CCCCCCCCO [Control, oleyl alcohol]												Glucose ([2]; Time 0 h (isobutanol addition)): 12.9 g/L; OD600 ([2]; Time 0 h (isobutanol addition)): 5.6; Glucose [2, 6]: 7.4 g/L; OD600 [2, 6]: 8.9; Glucose [2, 7]: 4.5 g/L; OD600 [2, 7]: 10.4; Glucose [2, 8]: 1.9 g/L; OD600 [2, 8]: 14.1; Glucose [2, 9]: 0 g/L; OD600 [2, 9]: 8.8; Glucose ([3]; Time 0 h (isobutanol addition)): 19.7 g/L; OD600 ([3]; Time 0 h (isobutanol addition)): 0.4; Glucose [3, 6]: 16.0 g/L; OD600 [3, 6]: 0.6; Glucose [3, 7]: 12.9 g/L; OD600 [3, 7]: 1.7; Glucose [3, 8]: 9.2 g/L; OD600 [3, 8]: 2.5; Glucose [3, 9]: 0.3 g/L; OD600 [3, 9]: 3.3
CCCCCCCC/C=C\CCCCCCCC(=O)O [oleic acid]	biocompatible	17.5	0.5	1.7	19.0	0.8		2.2	2.8	0.0	4.4	
CCCCCCCCCCCCO [Solvent 1-dodecanol, 1-dodecanol]	biocompatible	17.5	0.5	1.6	15.4	0.9	11.6	3.9	2.8	0.0	4.2	
CC(C)CO [Example 5, isobutanol]												Glucose ([2]; Time 0 h (isobutanol addition)): 12.7 g/L; OD600 ([2]; Time 0 h (isobutanol addition)): 5.7; Glucose [2, 6]: 11.7 g/L; OD600 [2, 6]: 6.8; Glucose [2, 7]: 11.7 g/L; OD600 [2, 7]: 6.9; Glucose [2, 8]: 11.7 g/L; OD600 [2, 8]: 7.2; Glucose [2, 9]: 11.6 g/L; OD600 [2, 9]: 5.3
CCCCCCCCC=O [Solvent 1-nonanal, 1-nonanal]	inhibited growth and glucose utilization	17.5	0.5	0.7	16.6	0.7	17.0	17.8	0.8	17.6	1.8	
CCCCCCCCCO [nonanol, 1-nonanol]	inhibited growth and glucose utilization	17.5	0.5	0.7	17.0	0.5	16.9	18.1	0.6	17.8	0.7	
CC(C)CO [isobutanol]												Effect on glucose utilization and biomass growth [2, 10]: almost completely inhibited glucose utilization and biomass growth; Effect on glucose utilization and biomass growth [3, 10]: almost completely inhibited glucose utilization and biomass growth
CCCCCCCC(=O)O [octanoic acid]	inhibited growth and glucose utilization	17.5	0.5	0.8	17.1	0.9	17.6	19.2	0.7	18.5	1.0	
CC(C)CO [Example 3, isobutanol]												Glucose ([3]; Time 0 h (isobutanol addition)): 18.9 g/L; OD600 ([3]; Time 0 h (isobutanol addition)): 0.4; Glucose [3, 6]: 17.5 g/L; OD600 [3, 6]: 0.6; Glucose [3, 7]: 17.7 g/L; OD600 [3, 7]: 0.7; Glucose [3, 8]: 17.4 g/L; OD600 [3, 8]: 0.6; Glucose [3, 9]: 17.4 g/L; OD600 [3, 9]: 0.6
sadB: butanol dehydrogenase from Achromobacter xylosoxidans (protein SEQ ID NO:10), expressed in E. coli Mach1/pTrc99a::sadB (protein, Achromobacter xylosoxidans) MKALVYHGDHKISLEDKPKPTLQKPTDVVVRVLKTTICGTDLGIYKGKNPEVADGRILGHEGVGVIEEVGESVTQFKKGDKVLISCVTSCGSCDYCKKQLYSHCRDGGWILGYMIDGVQAEYVRIPHADNSLYKIPQTIDDEIAVLLSDILPTGHEIGVQYGNVQPGDAVAIVGAGPVGMSVLLTAQFYSPSTIIVIDMDENRLQLAKELGATHTINSGTENVVEAVHRIAAEGVDVAIEAVGIPATWDICQEIVKPGAHIANVGVHGVKVDFEIQKLWIKNLTITTGLVNTNTTPMLMKVASTDKLPLKKMITHRFELAEIEHAYQVFLNGAKEKAMKIILSNAGAA												activity of the enzyme expressed from the sadB gene [4]: 3.5 mmol/min/mg protein
